Reference: patent US9102752B2, “Peptide vaccine for prevention and immunotherapy of dementia of the Alzheimer's type” (United Biomedical, Inc., priority 2013, dated 2015)

What was measured:
[1] = tested on: anti-Aβ antibodies in macaque antisera; assay: Specificity analysis (10-mer peptide ELISA) of antisera from Cynomolgus macaques; type: binding
[2] = tested on: anti-Aβ antibodies in sera of vaccinated patients; assay: Epitope mapping, competitive binding inhibition EIA with patient sera (10-mer peptides, IC50); set-up: species or system human; Epitope mapping, fine specificity analysis, serum of subject P210: unit not given here; conditions: for Epitope mapping, fine specificity analysis, serum of subject P101: serum 16 wpi of vaccinated patient P101; for Epitope mapping, fine specificity analysis, serum of subject P102: serum 16 wpi of vaccinated patient P102; for Epitope mapping, fine specificity analysis, serum of subject P103: serum 16 wpi of vaccinated patient P103; for Epitope mapping, fine specificity analysis, serum of subject P104: serum 16 wpi of vaccinated patient P104; for Epitope mapping, fine specificity analysis, serum of subject P105: serum 16 wpi of vaccinated patient P105; for Epitope mapping, fine specificity analysis, serum of subject P106: serum 16 wpi of vaccinated patient P106; for Epitope mapping, fine specificity analysis, serum of subject P107: serum 16 wpi of vaccinated patient P107; for Epitope mapping, fine specificity analysis, serum of subject P108: serum 16 wpi of vaccinated patient P108; for Epitope mapping, fine specificity analysis, serum of subject P109: serum 16 wpi of vaccinated patient P109; for Epitope mapping, fine specificity analysis, serum of subject P201: serum 16 wpi of vaccinated patient P201; for Epitope mapping, fine specificity analysis, serum of subject P202: serum 16 wpi of vaccinated patient P202; for Epitope mapping, fine specificity analysis, serum of subject P203: serum 16 wpi of vaccinated patient P203; for Epitope mapping, fine specificity analysis, serum of subject P204: serum 16 wpi of vaccinated patient P204; for Epitope mapping, fine specificity analysis, serum of subject P205: serum 16 wpi of vaccinated patient P205; for Epitope mapping, fine specificity analysis, serum of subject P206: serum 16 wpi of vaccinated patient P206; for Epitope mapping, fine specificity analysis, serum of subject P207: serum 16 wpi of vaccinated patient P207; for Epitope mapping, fine specificity analysis, serum of subject P208: serum 16 wpi of vaccinated patient P208; for Epitope mapping, fine specificity analysis, serum of subject P209: serum 16 wpi of vaccinated patient P209; for Epitope mapping, fine specificity analysis, serum of subject P210: serum 16 wpi of vaccinated patient P210
[3] = antisera of macaques given UBI AD Vaccine 150 μg/dose, 9 WPI
[4] = antisera of macaques given UBI AD Vaccine 150 μg/dose, 15 WPI
[5] = antisera of macaques given UBI AD Vaccine 750 μg/dose, 9 WPI
[6] = antisera of macaques given UBI AD Vaccine 750 μg/dose, 15 WPI

Row | Substance | Reactivity of antisera with peptide (specificity analysis ELISA) [1, 3] | Reactivity of antisera with peptide (specificity analysis ELISA) [1, 4] | Reactivity of antisera with peptide (specificity analysis ELISA) [1, 5] | Reactivity of antisera with peptide (specificity analysis ELISA) [1, 6] | Epitope mapping, fine specificity analysis, serum of subject P101 [2] | Epitope mapping, fine specificity analysis, serum of subject P102 [2] | Epitope mapping, fine specificity analysis, serum of subject P103 [2] | Epitope mapping, fine specificity analysis, serum of subject P104 [2] | Epitope mapping, fine specificity analysis, serum of subject P105 [2] | Epitope mapping, fine specificity analysis, serum of subject P106 [2] | Epitope mapping, fine specificity analysis, serum of subject P107 [2] | Epitope mapping, fine specificity analysis, serum of subject P108 [2] | Epitope mapping, fine specificity analysis, serum of subject P109 [2] | Epitope mapping, fine specificity analysis, serum of subject P201 [2] | Epitope mapping, fine specificity analysis, serum of subject P202 [2] | Epitope mapping, fine specificity analysis, serum of subject P203 [2] | Epitope mapping, fine specificity analysis, serum of subject P204 [2] | Epitope mapping, fine specificity analysis, serum of subject P205 [2] | Epitope mapping, fine specificity analysis, serum of subject P206 [2] | Epitope mapping, fine specificity analysis, serum of subject P207 [2] | other results
1 | 18 (EFRHDSGYEV; PEPTIDE (1)..(10) Abeta 3-12 or APP 770(E674-V683); listed as Homo sapiens) [compound 18] | 0.047 | 0.060 | 0.042 | 0.052 | 0 | 0 | 0 | 0 | 0 | 0 | 0 | 0 | 0 | 0 | 0 | 0 | 0 | 0 | 0 | 0 | Epitope mapping, fine specificity analysis, serum of subject P208 [2]: 0; Epitope mapping, fine specificity analysis, serum of subject P209 [2]: 0; Epitope mapping, fine specificity analysis, serum of subject P210 [2]: 0
2 | 30 (QKLVFFAEDV; PEPTIDE (1)..(10) Abeta 15-24 or APP 770(Q686-V695); listed as Homo sapiens) [compound 30] | 0.043 | 0.055 | 0.062 | 0.059 | 0 | 0 | 0 | 0 | 0 | 0 | 0 | 0 | 0 | 0 | 0 | 0 | 0 | 0 | 0 | 0 | Epitope mapping, fine specificity analysis, serum of subject P208 [2]: 0; Epitope mapping, fine specificity analysis, serum of subject P209 [2]: 0; Epitope mapping, fine specificity analysis, serum of subject P210 [2]: 0
3 | 11 (ISEVKMDAEF; PEPTIDE (1)..(10) Abeta -6-4 or APP 770(I666-F675); listed as Homo sapiens) [compound 11] | 0.055 | 0.058 | 0.063 | 0.062 | 0 | 0 | 0 | 0 | 0 | 0 | 0 | 0 | 0 | 0 | 0 | 0 | 0 | 0 | 0 | 0 | Epitope mapping, fine specificity analysis, serum of subject P208 [2]: 0; Epitope mapping, fine specificity analysis, serum of subject P209 [2]: 0; Epitope mapping, fine specificity analysis, serum of subject P210 [2]: 0
4 | 16 (MDAEFRHDSG; PEPTIDE (1)..(10) Abeta -1-9 or APP 770(M671-G680); listed as Homo sapiens) [compound 16] | 0.056 | 0.061 | 0.051 | 0.056 | 420 | 12 | 0 | 0 | 0 | 0 | 0 | 0 | 0 | 9 | 116 | 0 | 17 | 0 | 0 | 2 | Epitope mapping, fine specificity analysis, serum of subject P208 [2]: 6; Epitope mapping, fine specificity analysis, serum of subject P209 [2]: 0; Epitope mapping, fine specificity analysis, serum of subject P210 [2]: 121
5 | 10 (EISEVKMDAE; PEPTIDE (1)..(10) Abeta -7-3 or APP 770(E665-E674); listed as Homo sapiens) [compound 10] | 0.060 | 0.056 | 0.064 | 0.053 | 0 | 0 | 0 | 0 | 0 | 0 | 0 | 0 | 0 | 0 | 0 | 0 | 0 | 0 | 0 | 0 | Epitope mapping, fine specificity analysis, serum of subject P208 [2]: 0; Epitope mapping, fine specificity analysis, serum of subject P209 [2]: 0; Epitope mapping, fine specificity analysis, serum of subject P210 [2]: 0
6 | 23 (SGYEVHHQKL; PEPTIDE (1)..(10) Abeta 8-17 or APP 770(S679-L688); listed as Homo sapiens) [compound 23] | 0.097 | 0.071 | 0.077 | 0.082 | 0 | 0 | 0 | 0 | 0 | 0 | 0 | 0 | 0 | 0 | 0 | 0 | 0 | 0 | 0 | 0 | Epitope mapping, fine specificity analysis, serum of subject P208 [2]: 0; Epitope mapping, fine specificity analysis, serum of subject P209 [2]: 0; Epitope mapping, fine specificity analysis, serum of subject P210 [2]: 0
7 | 28 (HHQKLVFFAE; PEPTIDE (1)..(10) Abeta 13-22 or APP 770(H684-E693); listed as Homo sapiens) [compound 28] | 0.044 | 0.052 | 0.046 | 0.032 | 0 | 0 | 0 | 0 | 0 | 0 | 0 | 0 | 0 | 0 | 0 | 0 | 0 | 0 | 0 | 0 | Epitope mapping, fine specificity analysis, serum of subject P208 [2]: 0; Epitope mapping, fine specificity analysis, serum of subject P209 [2]: 0; Epitope mapping, fine specificity analysis, serum of subject P210 [2]: 0
